Experimental data reported in ChEMBL document CHEMBL4130548, “Exploration of 1,2,3-triazole-pyrimidine hybrids as potent reversal agents against ABCB1-mediated multidrug resistance” (Eur J Med Chem, 2018).

Experiments:
Format in all cases: cell-based
[1] = target: T1, ATP-dependent translocase ABCB1 (Homo sapiens, UniProt P08183); test: Inhibition of ABCB1 in human SW620/AD300 cells assessed as potentiation of paclitaxel-induced cytotoxicity by measuring fold reduction in paclitaxel IC50 at 2 uM preincubated for 4 hrs followed by paclitaxel addition measured after 72 hrs by MTT assay
T1 sequence (P08183 whole entry): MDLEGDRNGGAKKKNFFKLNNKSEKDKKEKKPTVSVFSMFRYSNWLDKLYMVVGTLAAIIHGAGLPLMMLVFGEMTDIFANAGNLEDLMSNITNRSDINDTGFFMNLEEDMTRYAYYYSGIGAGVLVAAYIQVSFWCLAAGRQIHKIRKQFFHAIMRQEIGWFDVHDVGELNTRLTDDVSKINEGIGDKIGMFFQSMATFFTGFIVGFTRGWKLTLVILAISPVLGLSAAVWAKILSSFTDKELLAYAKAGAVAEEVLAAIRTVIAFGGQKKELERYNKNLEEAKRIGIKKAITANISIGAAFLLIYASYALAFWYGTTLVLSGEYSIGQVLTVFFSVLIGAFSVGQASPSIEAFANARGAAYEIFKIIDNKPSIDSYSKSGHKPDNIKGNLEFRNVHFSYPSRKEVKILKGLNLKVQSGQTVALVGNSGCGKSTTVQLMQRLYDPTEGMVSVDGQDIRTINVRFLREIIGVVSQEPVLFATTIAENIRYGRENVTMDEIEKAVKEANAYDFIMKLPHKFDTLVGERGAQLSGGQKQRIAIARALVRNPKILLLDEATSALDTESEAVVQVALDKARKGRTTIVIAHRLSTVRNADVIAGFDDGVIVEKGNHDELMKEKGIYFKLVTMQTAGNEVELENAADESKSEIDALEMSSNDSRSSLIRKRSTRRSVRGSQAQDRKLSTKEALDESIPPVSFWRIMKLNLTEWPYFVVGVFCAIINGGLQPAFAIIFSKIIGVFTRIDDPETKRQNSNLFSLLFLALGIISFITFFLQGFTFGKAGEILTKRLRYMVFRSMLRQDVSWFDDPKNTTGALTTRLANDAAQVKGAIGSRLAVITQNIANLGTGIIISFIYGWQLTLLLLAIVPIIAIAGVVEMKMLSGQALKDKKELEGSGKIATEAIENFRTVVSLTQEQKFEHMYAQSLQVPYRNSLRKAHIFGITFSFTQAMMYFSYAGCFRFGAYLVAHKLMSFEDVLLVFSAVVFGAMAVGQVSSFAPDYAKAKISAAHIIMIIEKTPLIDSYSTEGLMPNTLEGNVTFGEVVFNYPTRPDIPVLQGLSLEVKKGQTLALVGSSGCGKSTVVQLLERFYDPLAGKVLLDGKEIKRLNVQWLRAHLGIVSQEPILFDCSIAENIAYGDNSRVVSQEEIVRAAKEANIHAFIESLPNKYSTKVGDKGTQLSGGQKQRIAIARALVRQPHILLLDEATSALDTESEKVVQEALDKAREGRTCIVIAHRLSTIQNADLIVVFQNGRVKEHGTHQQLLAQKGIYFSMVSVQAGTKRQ

[2] = target: T1, ATP-dependent translocase ABCB1; test: Inhibition of ABCB1 in human SW620/AD300 cells assessed as reduction in paclitaxel efflux at 2 uM treated followed by 2 hrs of paclitaxel treatment in paclitaxel free medium for 30 mins by flow cytometry
[3] = target: T1, ATP-dependent translocase ABCB1; test: Binding affinity at ABCB1 in human SW620/AD300 cells assessed as thermal stabilization at 2 uM preincubated for 4 hrs followed by incubation 40 to 61 degC for 3 mins by CETSA; details: 0.05 h
[4] = target: T1, ATP-dependent translocase ABCB1; test: Inhibition of ABCB1 in human SW620/AD300 cells assessed as potentiation of colchicine-induced cytotoxicity by measuring fold reduction in colchicine IC50 at 2 uM preincubated for 4 hrs followed by […] measured after 72 hrs by MTT assay relative to verapamil
[5] = target: T1, ATP-dependent translocase ABCB1; test: Inhibition of ABCB1 in human SW620/AD300 cells assessed as increase in Rh123 accumulation at 2 uM preincubated or 4 hrs followed by Rh123 addition measured after 30 mins by flow cytometry; details: 0.5 h
[6] = target: T1, ATP-dependent translocase ABCB1; test: Inhibition of ABCB1 (unknown origin) expressed in HEK293T cells assessed as potentiation of colchicine-induced cytotoxicity by measuring fold reduction in colchicine IC50 at 2 uM preincubated for 4 hrs followed by […] measured after 72 hrs by MTT assay
[7] = target: T1, ATP-dependent translocase ABCB1; test: Inhibition of ABCB1 in human SW620/AD300 cells assessed as potentiation of paclitaxel-induced cytotoxicity by measuring fold reduction in paclitaxel IC50 at 2 uM preincubated for 4 hrs followed by paclitaxel addition measured after 72 hrs by MTT assay relative to verapamil
[8] = target: T1, ATP-dependent translocase ABCB1; test: Inhibition of ABCB1 in human SW620/AD300 cells assessed as potentiation of colchicine-induced cytotoxicity by measuring fold reduction in colchicine IC50 at 2 uM preincubated for 4 hrs followed by […] measured after 72 hrs by MTT assay
[9] = target: T1, ATP-dependent translocase ABCB1; test: Inhibition of ABCB1 (unknown origin) expressed in HEK293T cells assessed as potentiation of paclitaxel-induced cytotoxicity by measuring fold reduction in paclitaxel IC50 at 2 uM preincubated for 4 hrs followed by paclitaxel addition measured after 72 hrs by MTT assay
[10] = target: T1, ATP-dependent translocase ABCB1; test: Inhibition of ABCB1 in human SW620/AD300 cells assessed as reduction in Rh123 efflux at 2 uM treated followed by Rh123 addition in Rh123 free medium for 30 to 120 mins by flow cytometry

SMILES	fold change (FC) [1]	further results
N#Cc1c(Nc2cccc(Cl)c2)nc(SCc2cn(Cc3ccccc3Cl)nn2)nc1-c1ccccc1	21.52	–
Cc1ccc(Nc2nc(SCc3cn(Cc4ccc(Cl)cc4)nn3)nc(-c3ccccc3)c2C#N)cc1	8.7	–
C#CCSc1nc(Nc2ccc(Cl)cc2)c(C#N)c(-c2ccccc2)n1	1.64	–
N#Cc1c(Nc2ccccc2F)nc(SCc2cn(Cc3ccc(Cl)cc3)nn2)nc1-c1ccccc1	1.35	–
N#Cc1c(Nc2cccc([N+](=O)[O-])c2)nc(SCc2cn(Cc3ccccc3Cl)nn2)nc1-c1ccccc1	5.68	–
Cc1ccc(Nc2nc(SCc3cn(Cc4ccccc4Cl)nn3)nc(-c3ccc(Cl)cc3)c2C#N)cc1	5.31	–
COc1ccccc1Nc1nc(SCc2cn(Cc3ccccc3Cl)nn2)nc(-c2ccccc2)c1C#N	2.29	–
C#CCSc1nc(Nc2cccc(C(F)(F)F)c2)c(C#N)c(-c2ccccc2)n1	1.2	–
Cc1ccccc1Nc1nc(SCc2cn(Cc3ccc(Cl)cc3)nn2)nc(-c2ccccc2)c1C#N	136.33	inhibition (INH) [2]: Active; Activity [3]: Active; fold change (FC) [4]: 2; inhibition (INH) [5]: Active; fold change (FC) [6]: 31.31; fold change (FC) [7]: 7; fold change (FC) [8]: 5.04; fold change (FC) [9]: 4.53; inhibition (INH) [10]: Active
C#CCSc1nc(Nc2cccc(Cl)c2)c(C#N)c(-c2ccccc2)n1	1.36	–
Cc1ccc(Nc2nc(SCc3cn(Cc4ccc(F)cc4)nn3)nc(-c3ccccc3)c2C#N)cc1	1.03	–
N#Cc1c(Nc2ccc(F)cc2)nc(SCc2cn(Cc3ccccc3Cl)nn2)nc1-c1ccccc1	1.01	–
Cc1ccccc1Nc1nc(SCc2cn(Cc3ccccc3Cl)nn2)nc(-c2ccccc2)c1C#N	5.6	–
C#CCSc1nc(Nc2ccccc2Cl)c(C#N)c(-c2ccccc2)n1	1.32	–
COc1cc(-c2nc(SCc3cn(Cc4ccccc4Cl)nn3)nc(Nc3ccc(C)cc3)c2C#N)cc(OC)c1OC	34.08	–
N#Cc1c(Nc2ccccc2)nc(SCc2cn(Cc3ccccc3Cl)nn2)nc1-c1ccccc1	7.86	–

SMILES	fold change (FC) [1]	further results
Cc1ccc(Nc2nc(SCc3cn(Cc4ccccc4Cl)nn3)nc(-c3ccc(C(C)C)cc3)c2C#N)cc1	51.12	–
Cc1ccc(Cn2cc(CSc3nc(Nc4ccccc4C)c(C#N)c(-c4ccccc4)n3)nn2)cc1	4.44	–
COc1ccc(Nc2nc(SCc3cn(Cc4ccccc4Cl)nn3)nc(-c3ccccc3)c2C#N)cc1	6.7	–
Cc1ccc(Cn2cc(CSc3nc(Nc4ccc(C)cc4)c(C#N)c(-c4ccccc4)n3)nn2)cc1	4.35	–
Cc1ccc(Cn2cc(CSc3nc(Nc4ccccc4Cl)c(C#N)c(-c4ccccc4)n3)nn2)cc1	1.09	–
Cc1ccc(Nc2nc(SCc3cn(Cc4ccccc4Cl)nn3)nc(-c3ccc(C)cc3)c2C#N)cc1	17.04	–
N#Cc1c(Nc2cccc(C(F)(F)F)c2)nc(SCc2cn(Cc3ccccc3Cl)nn2)nc1-c1ccccc1	5.84	–
C#CCSc1nc(Nc2ccc(OC)cc2)c(C#N)c(-c2ccccc2)n1	1.92	–
N#Cc1c(Nc2ccccc2Cl)nc(SCc2cn(Cc3ccccc3Cl)nn2)nc1-c1ccccc1	24.06	–
Cc1ccc(Nc2nc(SCc3cn(Cc4ccccc4Cl)nn3)nc(-c3ccc(Br)cc3)c2C#N)cc1	3.61	–
Cc1cccc(Nc2nc(SCc3cn(Cc4ccccc4Cl)nn3)nc(-c3ccccc3)c2C#N)c1	8.7	–
Cc1ccc(Cn2cc(CSc3nc(Nc4ccccc4F)c(C#N)c(-c4ccccc4)n3)nn2)cc1	1	–
N#Cc1c(Nc2ccc(Cl)cc2)nc(SCc2cn(Cc3ccccc3Cl)nn2)nc1-c1ccccc1	2.02	–
N#Cc1c(Nc2ccccc2F)nc(SCc2cn(Cc3ccccc3Cl)nn2)nc1-c1ccccc1	8.7	–
Cc1ccc(Nc2nc(SCc3cn(Cc4ccccc4Cl)nn3)nc(-c3ccccc3)c2C#N)cc1	3.58	–
